# In patent US20130324412A1, “N-ALKOXYAMIDES OF 6-(SUBSTITUTED PHENYL)-4-AMINOPICOLINATES AND 2-(SUBSTITUTED PHENYL)-6-AMINO-4-PYRIMIDINECARBOXYLATES AND THEIR USE AS SELECTIVE HERBICIDES FOR CROPS” (DOW AGROSCIENCES LLC, priority 2009, published 2013):
# Experiments:
# Assay type in all cases: in vivo
# [1] = system: velvetleaf (Abutilon theophrasti); assay: General postemergence herbicidal activity, velvetleaf; conditions: post-emergence, 336 h, 70 g ai/ha, postemergence, after 14 d, 0 = no injury, 100 = complete kill, read-out: ABUTH % Visual Injury
# Method in brief: (§1)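 Greenhouse plants at first to second true leaf stage sprayed overhead at 187 L/ha in acetone/DMSO with crop oil concentrate and surfactant, at a high rate plus ½× to 1/16× serial dilutions. Injury rated visually after 14 d against solvent-blank controls, 0 (none) to 100% (complete kill).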
# [2] = system: pigweed, redroot (Amaranthus retroflexus); assay: Postemergence herbicidal activity in corn, redroot pigweed; conditions: corn test, visual rating after 21 d, probit analysis, dose to kill or control 80 percent
# Procedure: Seeds of corn and the desired weed species were planted in Sun Gro MetroMix 360 planting mixture, which typically has a pH of 6.0 to 6.8 and an organic matter content of about 30 percent, in plastic pots with a surface area of 95 cm^2. When required to ensure good germination and healthy plants, a fungicide treatment and/or other chemical or physical treatment was applied. The plants were grown for 7-21 d in a greenhouse with an approximate 15-h photoperiod which was maintained at about 23-29° C. during the day and 22-28° C. during the night. Nutrients and water were added on a regular basis and supplemental lighting was provided with overhead metal halide 1000-Watt lamps as necessary. The corn plants were utilized for testing when they reached the second true leaf stage. The weed species were utilized at the first or second true leaf stage.
# A weighed amount, determined by the highest rate to be tested, of each test compound was dissolved in 4 mL of a 97:3 v/v mixture of acetone and DMSO to obtain concentrated stock solutions. […] The concentrated stock solutions obtained were diluted with 20 mL of an aqueous mixture containing acetone, water, isopropyl alcohol, DMSO, Atplus 411F crop oil concentrate, and Triton X-155 surfactant in a 48.5:39:10:1.5:1.0:0.02 v/v ratio to obtain spray solutions containing the highest application rates. […]
# The treated plants and control plants were placed in a greenhouse as described above and watered by sub-irrigation to prevent wash-off of the test compounds. After 21 d, the condition of the test plants as compared with that of the untreated plants was determined visually and scored on a scale of 0 to 100 percent where 0 corresponds to no injury and 100 corresponds to complete kill. […]
# [3] = system: wild buckwheat (Polygonum convululus); assay: General postemergence herbicidal activity, wild buckwheat; conditions: post-emergence, 336 h, 70 g ai/ha, postemergence, after 14 d, 0 = no injury, 100 = complete kill, read-out: POLCO % Visual Injury
# Method in brief: as §1
SMILES,pest or weed control at 70 g/ha [1],AMARE GR80 [2],pest or weed control at 70 g/ha [3]
"COc1c(Cl)ccc(-c2cc(N)c(Cl)c(C(=O)NOCC(C)C)n2)c1F [Compound 1, 4-amino-3-chloro-6-(4-chloro-2-fluoro-3-methoxyphenyl)-N-(2-methylpropoxy)picolinamide]",100%,14 g ai/ha,100%
"CONC(=O)c1nc(-c2ccc(Cl)c(OC)c2F)cc(N)c1Cl [Compound 2, 4-Amino-3-chloro-6-(4-chloro-2-fluoro-3-methoxyphenyl)-N-methoxypicolinamide]",100%,<4 g ai/ha,100%
